Measurements: patent publication US20240299316A1, “METHOD FOR TREATING CANCER WITH A[…] RADIATION” (LANTERN PHARMA INC., priority 2021, published 2024)
Entries after “also recorded” stand apart in the source; their conditions may differ.

System: Panc03.27 xenografts
Experiment: Radiation (RT) pretreatment followed by LP-184 in subcutaneous Panc03.27 pancreatic xenografts
Assay type: in vivo, Mice
Conditions: for interaction of radiation with LP-184 on tumor volume (synergy) / mean terminal tumor volume of LP-184+RT group relative to LP-184 alone or RT alone: 4 Gy RT + 3 mg/kg i.p. LP-184, 3 mg/kg; for interaction of radiation with LP-184 on tumor volume (synergy): average tumor volume over days post treatment initiation; for mean terminal tumor volume of LP-184+RT group relative to LP-184 alone or RT alone: p value 0.017
Protocol: Radiation (RT) pretreatment of pancreatic tumors and subsequent (−)-hydroxyureamethyl acylfulvene treatment in vivo, 4 Gy RT was administered once weekly followed the next day by 3 mg/kg i.p. LP-184 in Panc03.27 xenografts for a total of 3 weeks. Mice bearing pre-established subcutaneous. Panc03.27 xenografts were treated with vehicle control, 4 Gy RT alone, 3 mg/kg LP-184 alone or their combination.
A line plot of average tumor volume in cubic millimeters over days post treatment initiation in Panc03.27 subcutaneous xenograft tumors treated with vehicle control (gray circles; N=6) is shown, 4 Gy RT alone (red squares; N=5), 3 mg/kg i.p. LP-184 alone (green triangles; N=6), and RT+LP-184 (blue inverted triangles; N=10). Error bars represent SEM.

In the case of `CC1=C2C(=CC(C)C2CN(O)C(N)=O)C(=O)[C@](C)(O)C12CC2` (single isomer, unassigned; (-)) [LP-184, (−)-hydroxyureamethyl acylfulvene], the “interaction of radiation with LP-184 on tumor volume (synergy)” value is reported as “synergized”, the “interaction of radiation with LP-184 on tumor volume (synergy)” value (listed as hydroxyureamethyl acylfulvene) is reported as “synergy” and the “mean terminal tumor volume of LP-184+RT group relative to LP-184 alone or RT alone” value (day 21) is reported as “statistically significant differences; also recorded: statistically smaller”. The “mean terminal tumor volume of LP-184+RT group relative to LP-184 alone or RT alone” value (day 21, listed as hydroxyureamethyl acylfulvene) was “statistically smaller”, the “mean tumor volume, fold lower in LP-184+RT animals compared to LP-184 alone animals” value (4 Gy RT once weekly followed next day by 3 mg/kg i.p. LP-184, 3 weeks, terminal tumors day 21, p=0.017) was roughly 1.8 fold and the “comparison of excised xenograft tumors at study termination across treatment arms” value (LP-184+RT group, day 21, FIG. 3) was “smallest mean volume”. The “efficacy of combination therapy using post-radiation treatment” value (post-radiation treatment with LP-184, pancreatic cancer) was “effective”.
